Test results taken from patent publication US11583552B2, “Pharmaceutical formulation of arsenic trioxide” (priority 2021, dated 2023).
Like-named read-outs stand apart in the source and are kept apart here.

Columns and labels:
[1] = Inhouse trials: Arsenic Trioxide in glycerin with sodium hydroxide; format: physicochemical; conditions: dissolved first in sodium hydroxide solution, then added to Glycerin
[2] = cited from earlier work

For Arsenic Trioxide, the “concentrated solution of Arsenic Trioxide formed in presence of Glycerin” value [1] is listed as 157400 µg/mL, the “solubility of Arsenic Trioxide in 100 g of water” value (shortened to “solubility of Arsenic Trioxide”) ([2]; 0° C.) is listed as 1.2 g and the “solubility of Arsenic Trioxide” value ([2]; 25° C.) is listed as 2.1 g. For the same substance, the “solubility of Arsenic Trioxide” value ([2]; 75° C.) was 5.6 g and the “solubility in alcohol, chloroform, and ether” value [2] was “insoluble”.
